Read-outs that look alike come from different tables or passages of the source.
Tests used:
SGC-7901 cells = assay: MTT antiproliferative assay, SGC-7901; assay type: cell-based; conditions: Homo sapiens, read-out: IC50 (μM) ± SD SGC-7901
Procedure: (§1) The in vitro antiproliferative activities of all target compounds 4a−k, 5a−h, and 6a−h were assayed by MTT method using human gastric cancer cell line SGC-7901 and human breast cancer cell line MCF-7.
(§2) All cell lines tested in this study were purchased from the American Type Culture Collection (ATCC, Manassas, VA). SGC-7901 (human gastric adenocarcinoma), HCT-116 (human colon carcinoma), and A549 (human pulmonary carcinoma) cells were cultured in RPMI-1640 medium containing 10% foetal serum (FBS) and 1% penicillin-streptomycin solution (100×). MCF-7 (human breast carcinoma) cells were cultured in DMEM medium containing 10% foetal serum (FBS) and 1% penicillin-streptomycin solution (100×). PC-3 (human prostate carcinoma) cells were cultured in Ham’s F-12K medium containing 10% foetal serum (FBS) and 1% penicillin-streptomycin solution (100×). All cells were cultured at 37 °C in a humidified atmosphere containing 5% CO2.
(§3) Cells grown in logarithmic phase were harvested and seeded onto 96-well cell plates at a density of 4 ∼ 5 × 10^3 cells per well (various from cell type) and were cultured for 24 h. Different concentrations of compounds were added into the wells, and the cells were cultured for another 72 h. The medium was removed, then 20 μL of MTT (5 mg/mL in PBS) was added to each well and the cells were incubated for 4 h. 150 μL of DMSO was added to each well to dissolve the formazan, and the absorbance at 490 nm of each well was measured by a microplate reader. IC50 values were calculated by SPSS software.

MCF-7 cells = assay: MTT antiproliferative assay, MCF-7; assay type: cell-based; conditions: Homo sapiens, read-out: IC50 (μM) ± SD MCF-7
Procedure: as §1, §2, §3

[1] = test system: microtubule network in PC-3 cells; assay: Immunofluorescence assay of microtubule network; assay type: cell-based, human; conditions: 20 nM, 24 h
Procedure: To evaluate the effects of 4k and 5a on intracellular microtubule, immunofluorescence assay was carried out to observe the changes of microtubule network in cell.
PC-3 cells in logarithmic phase were harvested and seeded onto 12-well cell plates with round coverslip on the bottom of each well at a density of 3 × 10^4 cells per well, and were cultured for 24 h. […] The medium was removed, and cells were washed with PBS twice, fixed with 4% formaldehyde in PBS for 30 min, then the solution was removed. Cells were washed with PBS twice, permeabilized with 0.2% (v/v) Triton X-100 in PBS for 30 min, then the solution was removed. Cells were washed with PBS twice, blocking the cells in 5% bovine serum albumin (BSA) for 30 min. Then BSA was removed, and cells were incubated with the primary α-tubulin antibody (Santa Cruz, CA) containing 2% BSA (v/v, 1: 100) overnight at 4 °C.
The following steps were operated in dark environment. The antibody was removed, then cells were washed with PBST twice and were added FITC-conjugated anti-mouse secondary antibody diluted (1:100) with 2% BSA in PBS and incubated at room temperature for 4 h. The cells were then washed with PBST twice, stained with 4′,6-diamidino-2-phenylindole (DAPI) for 30 min at room temperature, and washed with PBS twice. The round coverslips at the bottom of wells were taken out, and the images were photographed by a confocal microscope.

tubulin = assay: In vitro tubulin polymerisation assay; assay type: biochemical; conditions: 3 μM
Procedure: To investigate the effect of compounds 4k and 5a on microtubule system, their tubulin polymerisation inhibition activities were evaluated using in vitro tubulin polymerisation assay.
The BK001 kit used in this test was purchased from Cytoskeleton Inc. (Denver, CO, USA). […] Then the mixtures were transferred to 37 °C and tubulin assembly was monitored (excitation wavelength: 360 nm; emission wavelength: 420 nm) at 1 min intervals for 90 min by a microplate reader.

[2] = SGC-7901, 72 h drug exposure, MTT assay
[3] = MCF7, 72 h drug exposure, MTT assay

| SMILES | IC50 (SGC-7901 cells; [2]) | IC50 (MCF-7 cells; [3]) | also measured |
| --- | --- | --- | --- |
| COc1ccc(-n2cc3c(n2)C(c2cc(OC)c(OC)c(OC)c2)=NNC(=S)N3)cc1 [6g, 2–(4-Methoxyphenyl)-8–(3,4,5-trimethoxyphenyl)-2,6-dihydropyrazolo[4,3-e][1,2,4]triazepine-5(4H)-thione] | 2.16 ± 0.098 µM | 1.57 ± 0.243 µM |  |
| COc1cc(C2=NCC(=O)Nc3cn(-c4ccc(F)cc4)nc32)cc(OC)c1OC [5f, 2–(4-Fluorophenyl)-8–(3,4,5-trimethoxyphenyl)-2,6-dihydropyrazolo[4,3-e][1,4]diazepin-5(4H)-one] | 0.137 ± 0.025 µM | 1.86 ± 0.438 µM |  |
| COc1cc2c(c(OC)c1OC)-c1ccc(OC)c(=O)cc1[C@@H](NC(C)=O)CC2 [Colchicine, reference compound] |  |  | effect on microtubule network [1]: microtubule network was destroyed |
| COc1cc(C2=NCC(=O)Nc3cn(-c4cccc(F)c4)nc32)cc(OC)c1OC [5e, 2–(3-Fluorophenyl)-8–(3,4,5-trimethoxyphenyl)-2,6-dihydropyrazolo[4,3-e][1,4]diazepin-5(4H)-one] | 0.949 ± 0.017 µM | 3.01 ± 0.534 µM |  |
| COc1cc(C(=O)c2nn(-c3ccc([N+](=O)[O-])cc3)cc2N)cc(OC)c1OC [4j, (4-Amino-1–(4-nitrophenyl)-1H-pyrazol-3-yl)(3,4,5-trimethoxyphenyl)methanone] | 0.04 ± 0.006 µM | 0.391 ± 0.083 µM |  |
| COc1cc(C2=NCC(=O)Nc3cn(-c4ccc(C)cc4)nc32)cc(OC)c1OC [5c, 2–(4-Methylphenyl)-8–(3,4,5-trimethoxyphenyl)-2,6-dihydropyrazolo[4,3-e][1,4]diazepin-5(4H)-one] | 0.117 ± 0.01 µM | 1.38 ± 0.433 µM |  |
| COc1cc(C(=O)c2nn(-c3cccc(C)c3)cc2N)cc(OC)c1OC [4b, (4-Amino-1–(3-methylphenyl)-1H-pyrazol-3-yl)(3,4,5-trimethoxyphenyl)methanone] | 0.095 ± 0.011 µM | 0.224 ± 0.06 µM |  |
| COc1cc(C2=NNC(=S)Nc3cn(-c4ccccc4F)nc32)cc(OC)c1OC [6d, 2–(2-Fluorophenyl)-8–(3,4,5-trimethoxyphenyl)-2,6-dihydropyrazolo[4,3-e][1,2,4]triazepine-5(4H)-thione] | 0.087 ± 0.008 µM | 0.398 ± 0.079 µM |  |
| COc1cc(C(=O)c2nn(-c3ccccc3)cc2N)cc(OC)c1OC [4a, (4-Amino-1-phenyl-1H-pyrazol-3-yl)(3,4,5-trimethoxyphenyl)methanone] | 0.04 ± 0.003 µM | 0.034 ± 0.005 µM |  |
| COc1ccc(-n2cc(N)c(C(=O)c3cc(OC)c(OC)c(OC)c3)n2)cc1 [4g, (4-Amino-1–(4-methoxyphenyl)-1H-pyrazol-3-yl)(3,4,5-trimethoxyphenyl)methanone] | 0.022 ± 0.002 µM | 0.068 ± 0.012 µM |  |
| COc1cc(C2=NNC(=S)Nc3cn(-c4ccc(F)cc4)nc32)cc(OC)c1OC [6f, 2–(4-Fluorophenyl)-8–(3,4,5-trimethoxyphenyl)-2,6-dihydropyrazolo[4,3-e][1,2,4]triazepine-5(4H)-thione] | 10 ± 0.078 µM | 8.42 ± 0.954 µM |  |
| COc1cc(C(=O)c2nn(-c3ccccc3C)cc2N)cc(OC)c1OC [4i, (4-Amino-1–(2-methylphenyl)-1H-pyrazol-3-yl)(3,4,5-trimethoxyphenyl)methanone] | 0.166 ± 0.004 µM | 2.2 ± 0.196 µM |  |
| COc1cc(C2=NNC(=S)Nc3cn(-c4cccc(F)c4)nc32)cc(OC)c1OC [6e, 2–(3-Fluorophenyl)-8–(3,4,5-trimethoxyphenyl)-2,6-dihydropyrazolo[4,3-e][1,2,4]triazepine-5(4H)-thione] | 5.12 ± 0.099 µM | 6.9 ± 0.815 µM |  |
| COc1cc(C(=O)c2nn(-c3ccccc3F)cc2N)cc(OC)c1OC [4d, (4-Amino-1–(2-fluorophenyl)-1H-pyrazol-3-yl)(3,4,5-trimethoxyphenyl)methanone] | 0.086 ± 0.004 µM | 0.404 ± 0.036 µM |  |
| COc1cc(C2=NCC(=O)Nc3cn(-c4ccccc4F)nc32)cc(OC)c1OC [5d, 2–(2-Fluorophenyl)-8–(3,4,5-trimethoxyphenyl)-2,6-dihydropyrazolo[4,3-e][1,4]diazepin-5(4H)-one] | 0.053 ± 0.008 µM | 1.08 ± 0.381 µM |  |
| CC(=O)O[C@H]1C(=O)[C@@]2(C)[C@H]([C@H](OC(=O)c3ccccc3)[C@]3(O)C[C@H](OC(=O)[C@H](O)[C@@H](NC(=O)c4ccccc4)c4ccccc4)C(C)=C1C3(C)C)[C@]1(OC(C)=O)CO[C@@H]1C[C@@H]2O [paclitaxel, reference compound] |  |  | effect on tubulin polymerisation (fluorescence intensity) (tubulin): enhanced microtubule polymerisation |
| COc1cc(C(=O)c2nn(-c3ccc(Cl)cc3)cc2N)cc(OC)c1OC [4h, (4-Amino-1–(4-chlorophenyl)-1H-pyrazol-3-yl)(3,4,5-trimethoxyphenyl)methanone] | 0.318 ± 0.02 µM | 0.098 ± 0.007 µM |  |
| COc1cc(C2=NNC(=S)Nc3cn(-c4ccc(Cl)cc4)nc32)cc(OC)c1OC [6h, 2–(4-Chlorophenyl)-8–(3,4,5-trimethoxyphenyl)-2,6-dihydropyrazolo[4,3-e][1,2,4]triazepine-5(4H)-thione] | 0.485 ± 0.03 µM | 0.662 ± 0.07 µM |  |
| COc1cc(C2=NCC(=O)Nc3cn(-c4cccc(C)c4)nc32)cc(OC)c1OC [5b, 2–(3-Methylphenyl)-8–(3,4,5-trimethoxyphenyl)-2,6-dihydropyrazolo[4,3-e][1,4]diazepin-5(4H)-one] | 0.424 ± 0.076 µM | 0.665 ± 0.052 µM |  |
| COc1ccc(-n2cc3c(n2)C(c2cc(OC)c(OC)c(OC)c2)=NCC(=O)N3)cc1 [5g, 2–(4-Methoxyphenyl)-8–(3,4,5-trimethoxyphenyl)-2,6-dihydropyrazolo[4,3-e][1,4]diazepin-5(4H)-one] |  |  | IC50 (SGC-7901 cells; SGC-7901, 72 h): 0.841 ± 0.024 µM; IC50 (MCF-7 cells; MCF7, 72 h): 2.86 ± 0.435 µM |
| COc1cc(C2=NNC(=S)Nc3cn(-c4ccc(C)cc4)nc32)cc(OC)c1OC [6c, 2–(4-Methylphenyl)-8–(3,4,5-trimethoxyphenyl)-2,6-dihydropyrazolo[4,3-e][1,2,4]triazepine-5(4H)-thione] | 0.151 ± 0.024 µM | 0.123 ± 0.02 µM |  |
| COc1cc(C2=NNC(=S)Nc3cn(-c4ccccc4)nc32)cc(OC)c1OC [6a, 2-Phenyl-8–(3,4,5-trimethoxyphenyl)-2,6-dihydropyrazolo[4,3-e][1,2,4]triazepine-5(4H)-thione] | 2.74 ± 0.041 µM | 2.98 ± 0.462 µM |  |
| COc1cc(C(=O)c2nn(-c3cccc(F)c3)cc2N)cc(OC)c1OC [4e, (4-Amino-1–(3-fluorophenyl)-1H-pyrazol-3-yl)(3,4,5-trimethoxyphenyl)methanone] | 0.439 ± 0.037 µM | 0.35 ± 0.023 µM |  |
| COc1cc(C(=O)c2nn(-c3ccc(F)cc3)cc2N)cc(OC)c1OC [4f, (4-Amino-1–(4-fluorophenyl)-1H-pyrazol-3-yl)(3,4,5-trimethoxyphenyl)methanone] | 0.092 ± 0.005 µM | 0.162 ± 0.01 µM |  |
| COc1cc(C(=O)c2nn(-c3ccc(C)cc3)cc2N)cc(OC)c1OC [4c, (4-Amino-1–(4-methylphenyl)-1H-pyrazol-3-yl)(3,4,5-trimethoxyphenyl)methanone] | 0.234 ± 0.033 µM | 3.9 ± 0.205 µM |  |
| COc1cc(C2=NCC(=O)Nc3cn(-c4ccc(Cl)cc4)nc32)cc(OC)c1OC [5h, 2–(4-Chlorophenyl)-8–(3,4,5-trimethoxyphenyl)-2,6-dihydropyrazolo[4,3-e][1,4]diazepin-5(4H)-one] | 0.772 ± 0.004 µM | 0.857 ± 0.09 µM |  |
| COc1cc(C2=NNC(=S)Nc3cn(-c4cccc(C)c4)nc32)cc(OC)c1OC [6b, 2–(3-Methylphenyl)-8–(3,4,5-trimethoxyphenyl)-2,6-dihydropyrazolo[4,3-e][1,2,4]triazepine-5(4H)-thione] | 0.366 ± 0.065 µM | 0.749 ± 0.181 µM |  |

Reference: publication PMC12459184, “Design, synthesis, and bioevaluation of pyrazole-containing tubulin polymerisation inhibitors based on conformational constraint strategy” (Journal of Enzyme Inhibition and Medicinal Chemistry, 2025)
